According to patent publication US20160287589A1, “SUBSTITUTED-IMIDAZOPYRIDAZINES” (BAYER PHARMA AKTIENGESELLSCHAFT, priority 2013, published 2016):
pIC50: −log10 of the molar value.

Experiments:
MKNK1 [1] = molecular target: T1, MKNK1 (Homo sapiens, UniProt Q9BUB5, T385D); assay: MKNK1 kinase assay (MKNK1 TR-FRET assay); format: biochemical; settings: 10 μM ATP, 15 min preincubation
T1 construct: GST (N); purchased Carna Biosciences 02-145; host or cells: insect cells (baculovirus expression system)
T1 sequence (Q9BUB5 1-424 isoform Q9BUB5-2 T344D): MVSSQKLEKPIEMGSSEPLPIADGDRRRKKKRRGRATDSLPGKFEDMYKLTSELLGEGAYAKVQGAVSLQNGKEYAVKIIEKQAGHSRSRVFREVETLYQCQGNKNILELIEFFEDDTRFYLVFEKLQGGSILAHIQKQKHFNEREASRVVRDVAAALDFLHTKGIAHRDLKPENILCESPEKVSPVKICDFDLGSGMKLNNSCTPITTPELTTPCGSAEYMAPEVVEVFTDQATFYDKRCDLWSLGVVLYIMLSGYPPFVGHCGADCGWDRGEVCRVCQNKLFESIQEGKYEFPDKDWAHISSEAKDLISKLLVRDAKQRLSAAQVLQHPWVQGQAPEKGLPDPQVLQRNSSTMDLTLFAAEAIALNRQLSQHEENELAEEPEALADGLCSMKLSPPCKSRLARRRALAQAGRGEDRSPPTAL

MKNK1 [2] = molecular target: T1, MKNK1; assay: MKNK1 kinase high ATP assay (TR-FRET-based); format: biochemical; settings: 2 mM ATP, 15 min preincubation
In short: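 GST-tagged full-length human MKNK1 (aa 1-424, T344D) from insect cells, preincubated with compound 15 min at 22 °C. Reaction 30 min at 22 °C with 2 mM ATP and 0.06 μM biotinylated peptide in HEPES pH 7.5, Mg2+, DTT. Phosphopeptide detected by TR-FRET (665/622 ratio) with anti-pS6 (pSer236) antibody; normalised to no-inhibitor and no-enzyme controls.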

SMILES | pIC50 (MKNK1 [1]; Table 1a) | pIC50 (MKNK1 [2]; Table 2a) | pIC50 (MKNK1 [1]; Table 1b) | pIC50 (MKNK1 [2]; Table 2b)
O=C(NCCOc1ccc2ncc(-c3cc4ccccc4o3)n2n1)C1CCOCC1 [Example I-66, N-(2-{[3-(1-Benzofuran-2-yl)imidazo[1,2-b]-pyridazin-6-yl]oxy}ethyl)tetrahydro-2H-pyran-4-carboxamide] | 8.14 | 7.83 |  | 
O=C(CO)NCCOc1ccc2ncc(-c3cc4ccccc4o3)n2n1 [Example I-67, N-(2-{[3-(1-Benzofuran-2-yl)imidazo[1,2-b]-pyridazin-6-yl]oxy}ethyl)-2-hydroxyacetamide] | 8.18 | 7.69 |  | 
O=C(NCCOc1ccc2ncc(-c3cc4ccccc4o3)n2n1)C1CCC1 [Example I-68, N-(2-{[3-(1-Benzofuran-2-yl)imidazo[1,2-b]-pyridazin-6-yl]oxy}ethyl)cyclobutane-carboxamide] | 8.11 | 7.69 |  | 
Cc1cccc(C(=O)NCCOc2ccc3ncc(-c4cc5ccccc5o4)n3n2)c1 [Example I-69, N-(2-{[3-(1-Benzofuran-2-yl)imidazo[1,2-b]-pyridazin-6-yl]oxy}ethyl)-3-methylbenzamide] | 7.86 | 7.43 |  | 
O=C(NCCOc1ccc2ncc(-c3cc4ccccc4o3)n2n1)c1ccccn1 [Example I-70, N-(2-{[3-(1-Benzofuran-2-yl)imidazo[1,2-b]-pyridazin-6-yl]oxy}ethyl)pyridine-2-carboxamide] | 7.82 | 7.34 |  | 
Cc1ccccc1C(=O)NCCOc1ccc2ncc(-c3cc4ccccc4o3)n2n1 [Example I-71, N-(2-{[3-(1-Benzofuran-2-yl)imidazo[1,2-b]-pyridazin-6-yl]oxy}ethyl)-2-methylbenzamide] | 8.34 | 7.84 |  | 
CC(C)CC(=O)NCCOc1ccc2ncc(-c3cc4ccccc4o3)n2n1 [Example I-72, N-(2-{[3-(1-Benzofuran-2-yl)imidazo[1,2-b]-pyridazin-6-yl]oxy}ethyl)-3-methylbutanamide] | 8.32 | 7.83 |  | 
CCC(C)C(=O)NCCOc1ccc2ncc(-c3cc4ccccc4o3)n2n1 (centres unmarked) [Example I-73, N-(2-{[3-(1-Benzofuran-2-yl)imidazo[1,2-b]-pyridazin-6-yl]oxy}ethyl)-2-methylbutanamide] | 8.25 | 7.78 |  | 
CCCCC(=O)NCCOc1ccc2ncc(-c3cc4ccccc4o3)n2n1 [Example I-74, N-(2-{[3-(1-Benzofuran-2-yl)imidazo[1,2-b]-pyridazin-6-yl]oxy}ethyl)pentanamide] | 8.27 | 7.78 |  | 
O=C(Cc1ccccc1)NCCOc1ccc2ncc(-c3cc4ccccc4o3)n2n1 [Example I-75, N-(2-{[3-(1-Benzofuran-2-yl)imidazo[1,2-b]-pyridazin-6-yl]oxy}ethyl)-2-phenylacetamide] | 8.22 | 7.75 |  | 
O=C(CC1CC1)NCCOc1ccc2ncc(-c3cc4ccccc4o3)n2n1 [Example I-76, N-(2-{[3-(1-Benzofuran-2-yl)imidazo[1,2-b]-pyridazin-6-yl]oxy}ethyl)-2-cyclopropylacetamide] | 8.14 | 7.68 |  | 
O=C(NCCOc1ccc2ncc(-c3cc4ccccc4o3)n2n1)c1ccco1 [Example I-77, N-(2-{[3-(1-Benzofuran-2-yl)imidazo[1,2-b]-pyridazin-6-yl]oxy}ethyl)furan-2-carboxamide] | 8.10 | 7.65 |  | 
O=C(NCCOc1ccc2ncc(-c3cc4ccccc4o3)n2n1)C1CCCO1 (centres unmarked) [Example I-78, N-(2-{[3-(1-Benzofuran-2-yl)imidazo[1,2-b]-pyridazin-6-yl]oxy}ethyl)tetrahydrofuran-2-carboxamide] | 8.17 | 7.64 |  | 
Cn1ccc(C(=O)NCCOc2ccc3ncc(-c4cc5ccccc5o4)n3n2)n1 [Example I-79, N-(2-{[3-(1-Benzofuran-2-yl)imidazo[1,2-b]-pyridazin-6-yl]oxy}ethyl)-1-methyl-1H-pyrazole-3-carboxamide] | 8.00 | 7.59 |  | 
CC(=O)NC[C@@H](C)Oc1ccc2ncc(-c3cc4ccccc4o3)n2n1 [Example I-80, N-[(2R)-2-{[3-(1-Benzofuran-2-yl)imidazo[1,2-b]pyridazin-6-yl]oxy}-propyl]acetamide] | 7.61 | 7.32 |  | 
c1cc(N2CCOCC2)c2cc(-c3cnc4ccc(OC[C@H]5CNCCO5)nn34)oc2c1 [II-1, 3-[4-(Morpholin-4-yl)-1-benzofuran-2-yl]-6-[(2R)-morpholin-2-ylmethoxy]-imidazo[1,2-b]pyridazine] |  |  | 8.07 | 7.70
C[C@H](N)COc1ccc2ncc(-c3cc4c(N5CCOCC5)cccc4o3)n2n1 [II-2, (2S)-1-({3-[4-(Morpholin-4-yl)-1-benzofuran-2-yl]imidazo[1,2-b]pyridazin-6-yl}oxy)propan-2-amine] |  |  | 7.80 | 7.44
CC(C)(C)OC(=O)N[C@H]1C[C@H](Oc2ccc3ncc(-c4cc5c(N6CCOCC6)cccc5o4)n3n2)C1 [II-3, tert-Butyl [trans-3-({3-[4-(morpholin-4-yl)-1-benzofuran-2-yl]imidazo[1,2-b]-pyridazin-6-yl}oxy)cyclobutyl]carbamate] |  |  | 6.96 | 6.71
N[C@H]1C[C@H](Oc2ccc3ncc(-c4cc5c(N6CCOCC6)cccc5o4)n3n2)C1 [II-4, trans-3-({3-[4-(Morpholin-4-yl)-1-benzofuran-2-yl]imidazo[1,2-b]pyridazin-6-yl}oxy)cyclobutanamine] |  |  | 7.74 | 7.55
O=C1CC[C@H](COc2ccc3ncc(-c4cc5c(N6CCOCC6)cccc5o4)n3n2)N1 [II-5, (5R)-5-[({3-[4-(Morpholin-4-yl)-1-benzofuran-2-yl]imidazo[1,2-b]pyridazin-6-yl}oxy)methyl]pyrrolidin-2-one] |  |  | 7.82 | 7.57
COC[C@H]1CCCN1c1cccc2oc(-c3cnc4ccc(OCCCS(C)(=O)=O)nn34)cc12 [II-6, 3-{4-[(2R)-2-(Methoxymethyl)pyrrolidin-1-yl]-1-benzofuran-2-yl}-6-[3-(methyl-sulfonyl)propoxy]imidazo[1,2-b]pyridazine] |  |  | 8.15 | 7.85
COC[C@H]1CCCN1c1cccc2oc(-c3cnc4ccc(OC[C@H]5CNCCO5)nn34)cc12 [II-7, 3-{4-[(2R)-2-(Methoxymethyl)pyrrolidin-1-yl]-1-benzofuran-2-yl}-6-[(2R)-morpholin-2-ylmethoxy]imidazo[1,2-b]pyridazine] |  |  | 8.20 | 8.38
COC[C@H]1CCCN1c1cccc2oc(-c3cnc4ccc(OC[C@H](C)N)nn34)cc12 [II-8, (2S)-1-[(3-{4-[(2R)-2-(Methoxymethyl)pyrrolidin-1-yl]-1-benzofuran-2-yl}-imidazo[1,2-b]pyridazin-6-yl)oxy]propan-2-amine] |  |  | 8.70 | 8.57
COC[C@H]1CCCN1c1cccc2oc(-c3cnc4ccc(OC[C@H]5CCC(=O)N5)nn34)cc12 [II-9, (5R)-5-{[(3-{4-[(2R)-2-(Methoxymethyl)pyrrolidin-1-yl]-1-benzofuran-2-yl}imidazo[1,2-b]pyridazin-6-yl)oxy]methyl}pyrrolidin-2-one] |  |  | 9.10 | 9.22
COC[C@H]1CCCN1c1cccc2oc(-c3cnc4ccc(OC)nn34)cc12 [II-10, 6-Methoxy-3-{4-[(2R)-2-(methoxymethyl)pyrrolidin-1-yl]-1-benzofuran-2-yl}-imidazo[1,2-b]pyridazine] |  |  | 8.19 | 8.30
